Results published in patent US20260015599A1, “TARGETING THE STING1 GENE BY CRISPR ACTIVATION” (AARHUS UNIVERSITET, priority 2022, published 2026).
Like-named read-outs stand apart in the source and are kept apart here.

Assays:
[1] = tested on: cGAS-STING signalling pathway; test: Stimulation of human sarcoma cell lines with cGAS, STING and RIG-I agonists, cytokine secretion; type: cell-based
Experimental: For stimulation in vitro, 30,000 or 60,000 cells were seeded per well in a 24-well plate one day prior to stimulation. Cells were stimulated by transfection using Lipofectamine 2000 transfection reagent (Invitrogen, Cat#: 11668019) combined with the following agents: 2 μg/mL HT-DNA (Sigma-Aldrich, Cat#: D6898), 8 μg/mL 2′3′-cGAMP (Invivogen, Cat#: tlrl-nacga23-5), and 40 ng/ml Poly(I:C)-LMW (Invivogen, Cat#: tlrl-picw). An untreated control and a lipofectamine 2000 control were included. All samples were run in biological duplicates or triplicates. […]
Supernatants from cells stimulated with HT-DNA and Poly(I:C) were analyzed for Interferonβ (IFNβ), CXCL10 and IL-6 using Meso Scale Discovery multiplex Enzyme-linked Immunosorbent assay.
Supernatants from cells stimulated with 2′3′-cGAMP were analyzed for CXCL10 and IL-6 using sandwich ELISA (RnD Systems, Cat#: DY299 and Cat#: DY206). CCL5 content in supernatants from cells stimulated with HT-DNA and Poly(I:C) were analyzed using sandwich ELISA (RnD Systems, Cat#: DY278). […]
Functional type I IFN in supernatants from cells stimulated with 2′3′-cGAMP was quantified using a type I interferon reporter cell assay (HEK-Blue IFN-α/β) (Invivogen, Cat#: hkb-ifnab) according to manufacturer's guidelines. […] The concentration of type I IFN was determined from a standard curve of IFN-a (PBL Assay Science, Cat#: 11100-1). […]

SW872 = test: Doxorubicin IC50 viability determination (CellTiter 96 AQueous One Solution Cell Proliferation Assay); type: cell-based; conditions: Homo sapiens, SW872, 48 h, 48 hrs of treatment, read-out: IC50 viability concentration
Experimental: Prior to analysing the immunological reponse to doxorubicin treatment (Sigma-Aldrich, Cat#: D1515-10 MG), and IC50 viability concentration was determined for both wt cells and electroporated cells (mock and STING+). A two-fold dilution of doxorubicin including 10 different dilutions ranging from 16 μM to 0.03125 μM was added to a cell culture and viability was determined using CellTiter 96 AQueous One Solution Cell Proliferation Assay (Promega, Cat#: G3580) after 48 hrs of treatment.
(§1) Wt, mock and STING+ cells were treated with IC50 values of doxorubicin in biological triplicates (IC50 for wt: 0.5 μM and IC50 for mock and STING+: 0.3 μM) and left for 48 hrs before harvest.

STING = test: Cytokine gene expression (qPCR) in STING-reactivated SW872 after doxorubicin treatment; type: cell-based, human; conditions: SW872 after CRISPRa targeting STING (sgRNA #4 + dCas9-VPR mRNA), doxorubicin at IC50, 48 hrs
Experimental: For each sample 500,000 cells were resuspended in PBS, spun down at 300 xG for 5 minutes at room temperature (RT) and resuspended in 17 μL opti-MEM (Gibco, Cat#: 31985070). 1.9 μL of dCas9-VPR mRNA (Horizon Discovery, Cat#: CAS12211) and 1 μg of sgRNA was added. The cell suspension was added to an electroporation strip and electroporated on a Lonza 4D nucleofector using pulse code CM138. Afterwards, the electroporation strip containing the cells was left for 3 minutes on the bench top to allow cells to reform. The samples were diluted in preheated DMEM complete and 60,000 wt cells and 120,000 mock and STING+ cells were seeded in a 12-well plate one day prior to doxorubicin treatment to allow cells to adhere.
as §1
RNA from cells was purified using NucleoSpin RNA for the isolation of total RNA (Macherey-Nagel, Cat#: 740984.250M) according to manufacturer's guidelines. cDNA was synthesized using iScript cDNA Synthesis Kit (Bio-Rad, Cat#: 1708891) according to manufacturer's guidelines using 400ng of RNA. Real-time PCR was carried out using 1 μL of 10 ng/μL cDNA in a total volume of 10 μL using KAPA SYBR FAST (Roche, Cat#: KK4611) and the following targets and primers: […]
Samples were run in biological triplicates and technical duplicates on a 384 well plate (Hounisen, Cat#: 72.1985.202). The analysis was performed using the LightCycler 480 software version LCS480 1.5.1.62(Roche).
The cancer cell line SW872 was electroporated with dCas9-VPR mRNA and either nothing (mock) or sgRNA #4 and after additional 24 hrs each cell condition was exposed to the anthracycline chemotherapy drug doxorubicin. Doxorubicin's mode-of-action is to increase DNA damage leakage and this has shown to induce a STING-dependent immune response in conjunction to the cellular toxicity is has on cancer cells.
Supernatants were collected 48 hrs after doxorubicin treatment and immune activation was assessed by qPCR (FIG. 8A-E).

human STING gene = test: CRISPR activation of STING in SW872, STING expression by immunoblotting and qPCR; type: cell-based; conditions: SW872, electroporated with dCas9-VPR mRNA, 48 hours
Description: To upregulate STING, CRISPR activation technique was used. Synthetic guideRNAs (sgRNAs) are used to guide a deactivated Cas9 (dCas9) to a site in the vicinity of the transcriptional start site of STING. Attached to the dCas9 are three transcription activators (VP64, Rta, p65; collectively termed VPR), which can activate transcription of the target gene. The dCas9-VPR is delivered as mRNA and is translated by the translation apparatus in the host cell.
To test the ability of the individual sgRNAs to upregulate STING expression, each sgRNA was tested individually as well as all 5 sgRNAs together in the human sarcoma cell line SW872 or HT1080. The sequence of the DNA binding part of the 5 sgRNAs were the following:
sgRNAs were purchased from Synthego and comprise 2′-O-Methyl at the three first and last bases as well as 3′ phosphorothioate bonds between the first three and last two bases.
dCas9-VPR mRNA (SEQ ID NO: 29 as produced by in vitro transcription) (or purchased from Horizon Discovery, Cat#: CAS12211) comprises full substitution of uridine with pseudouridine and cotranscriptional capping with CleanCap AG in a 1:4 ratio between GTP and CleanCap.
For each sample 500,000 cells were resuspended in PBS, spun down at 300 xg for 5 minutes at room temperature (RT) and resuspended in 17 μL opti-MEM (Gibco, Cat#: 31985070). 1.9 μL of dCas9-VPR mRNA (Horizon Discovery, Cat#: CAS12211) (SEQ ID NO: 29) and 1 μg of sgRNA (1 μg of each sgRNA in the sample with all 5 sgRNAs) were added. The cell suspensions were added to an electroporation strip and electroporated on a Lonza 4D nucleofector using pulse code CM138. Afterwards, the electroporation strip containing the cells were left for 3 minutes on the bench top to allow cells to reform. The samples were diluted in preheated DMEM complete medium and cells were seeded at 50-100.000 cells per well in a 24-well plate and left for various days before harvest. […]

Compound: Nc1nc2c(ncn2[C@@H]2O[C@@H]3COP(=O)(O)O[C@H]4[C@@H](O)[C@H](n5cnc6c(N)ncnc65)O[C@@H]4COP(=O)(O)O[C@@H]2[C@@H]3O)c(=O)[nH]1 [2′3′-cGAMP, 2′,3′-cyclic GMP-AMP]
- cell responsiveness (secretion levels of IFNb, CXCL10, IL6 or CCL5) ([1]; SW872, 20-24 hours of activation): not responding

Compound: COc1cccc2c1C(=O)c1c(O)c3c(c(O)c1C2=O)C[C@@](O)(C(=O)CO)C[C@@H]3O[C@H]1C[C@H](N)[C@H](O)[C@H](C)O1 [doxorubicin]
- IC50 (SW872; mock and STING+ (electroporated) SW872 cells): 300 nM
- IC50 (SW872; wt SW872 cells): 500 nM
- gene expression of CCL5 (STING): increased
- gene expression of CXCL10 (STING): increased
- gene expression of IFNb (STING): increased

Compound: sgRNA #4: sgRNA targeting human STING gene, DNA binding part CAGAAACCGGCAGGCUCUCU (listed as RNA, chemistry not fully specified)
- STING expression (immunoblotting, qPCR) (human STING gene): equally or better than the combination of all five sgRNAs
- STING expression (immunoblotting, qPCR) (human STING gene; listed as SEQ ID NO: 4): highest activity
- STING expression (immunoblotting, qPCR) (human STING gene; listed as sgRNA#4): highest expression level

Compound: Poly(I:C)
- cell responsiveness (secretion levels of IFNb, CXCL10, IL6 or CCL5) ([1]; all four cell lines (HT-1080, SW872, SW982, SK-LMS1), 20-24 hours of activation): responded
